# Legend:
# [1] = biological target: T1, Proteinase-activated receptor 1 (Homo sapiens, UniProt P25116); test: Antagonistic activity against thrombin receptor, inhibition of secreted radiolabeled [3H]5-HT from washed human platelets stimulated by 3 uM thrombin receptor activating peptide (TRAP); type: functional
# T1 sequence (P25116 whole entry): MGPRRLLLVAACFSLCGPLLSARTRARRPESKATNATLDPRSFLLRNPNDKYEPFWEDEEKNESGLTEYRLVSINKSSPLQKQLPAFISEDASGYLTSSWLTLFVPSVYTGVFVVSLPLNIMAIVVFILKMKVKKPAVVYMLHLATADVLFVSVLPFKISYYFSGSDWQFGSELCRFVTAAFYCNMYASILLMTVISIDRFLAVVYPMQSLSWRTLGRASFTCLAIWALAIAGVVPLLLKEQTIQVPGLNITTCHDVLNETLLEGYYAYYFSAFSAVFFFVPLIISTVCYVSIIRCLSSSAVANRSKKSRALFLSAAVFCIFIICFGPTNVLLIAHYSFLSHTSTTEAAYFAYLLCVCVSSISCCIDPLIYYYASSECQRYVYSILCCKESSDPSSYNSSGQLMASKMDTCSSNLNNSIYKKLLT
# Prothrombin = Prothrombin (Homo sapiens, UniProt P00734); test: Compound was tested for thrombin catalytic activity; no inhibition was observed
# [2] = biological target: T1, Proteinase-activated receptor 1; test: Displacement of [3H]SFFLRR-NH2 from human thrombin receptor PAR-1
# [3] = biological target: T1, Proteinase-activated receptor 1; test: Inhibition of secretion of radiolabeled serotonin from washed human platelets stimulated by 1 nM thrombin; type: functional
# [4] = biological target: T2, Proteinase-activated receptor 1 (Homo sapiens) (UniProt P25116); test: Inhibition of secretion of radiolabeled concentration; type: functional; conditions: concentration not given here
# T2 sequence (whole entry): T1 sequence (P25116 whole entry)
Structure (SMILES),IC50 [1] [µM],Ki (Prothrombin) [µM],IC50 [2] [µM],IC50 [3] [µM],inhibition [4] [%]
COc1cccc(CN(CCCN2CCCCC2)c2cc(-c3ccccc3)no2)c1,1.6,,,,
Cc1ccccc1-c1cc(N(CCCN2CCCCCC2)Cc2ccc3c(c2)OCO3)on1,3.22,,,,
COc1cccc(CN(CCCN2CCCCCCC2)c2cc(-c3ccccc3)no2)c1,> 10,,,,
CS(=O)(=O)c1ccc(-c2cc(N(CCCN3CCCCCC3)Cc3ccc4c(c3)OCO4)on2)cc1,3.2,,,,
c1ccc(-c2cc(N(CCN3CCCCCC3)Cc3cccc4ccccc34)on2)cc1,5,,,,
c1ccc(-c2cc(N(CCCN3CCCCC3)CC3CCCCC3)on2)cc1,> 10,,,,
c1ccc(CN(CCCN2CCCCC2)c2cc(-c3ccccc3)no2)cc1,9,,,,
c1ccc(-c2ccc(-c3cc(N(CCCN4CCCCCC4)Cc4ccc5c(c4)OCO5)on3)cc2)cc1,4.44,,,,
C[S+]([O-])c1ccc(-c2cc(N(CCCN3CCCCCC3)Cc3ccc4c(c3)OCO4)on2)cc1 (centres undefined),3.7,,,,
COc1cccc(CN(CCCN2CCC2)c2cc(-c3ccccc3)no2)c1,> 10,,,,
COc1ccccc1-c1cc(N(CCCN2CCCCCC2)Cc2ccc3c(c2)OCO3)on1,2.22,,2.21,,
COc1cccc(CN(CCCN2CCCC2)c2cc(-c3ccccc3)no2)c1,3.3,,,,
COc1cccc(CN(CCCC2CCCCC2)c2cc(-c3ccccc3)no2)c1,> 10,,,,
c1ccc(-c2cccc(-c3cc(N(CCCN4CCCCCC4)Cc4ccc5c(c4)OCO5)on3)c2)cc1,6.42,,,,
Clc1ccccc1-c1cc(N(CCCN2CCCCCC2)Cc2ccc3c(c2)OCO3)on1,2.99,,,,
CCCCN(CCCN1CCCCC1)c1cc(-c2ccccc2)no1,> 40,,,,
c1ccc(-c2cc(N(CCCCN3CCCCCC3)Cc3cccc4ccccc34)on2)cc1,5,,,,
CC(C)N(CC(O)c1ccc(C#N)cc1)C(=O)Nc1ccccc1 (centres undefined),12,,,,
c1ccc(-c2cc(N(CCCN3CCCCC3)Cc3ccc4ccccc4c3)on2)cc1,2,,,,

# These reach a lower IC50 [1]. Values come first.
IC50 [1] [µM],Ki (Prothrombin) [µM],IC50 [2] [µM],IC50 [3] [µM],inhibition [4] [%],Structure (SMILES)
1.31,,,> 10,,Fc1ccc(-c2cc(N(CCCN3CCCCCC3)Cc3ccc4c(c3)OCO4)on2)cc1
1.24,,0.99,4.25,,Clc1ccc(-c2cc(N(CCCN3CCCCCC3)Cc3ccc4c(c3)OCO4)on2)cc1
1,,,,,Clc1cccc(CN(CCCN2CCCCC2)c2cc(-c3ccccc3)no2)c1
0.83,,1.02,> 10,,O=[N+]([O-])c1cccc(-c2cc(N(CCCN3CCCCCC3)Cc3ccc4c(c3)OCO4)[o+][n-]2)c1
0.6,,,,,c1ccc(-c2cc(N(CCCN3CCCCC3)Cc3ccc4c(c3)OCO4)on2)cc1
0.5,,2.14,2.4,,Fc1ccc(-c2cc(N(CCCN3CCCCCC3)Cc3ccc4c(c3)OCO4)on2)cc1F
0.5,,,,,COc1cccc(CN(CCCN2CCCCCC2)c2cc(-c3ccccc3)no2)c1
0.5,,,,,c1ccc(-c2cc(N(CCCN3CCCCC3)Cc3cccc4ccccc34)on2)cc1
0.43,,,> 4,,CSc1ccc(-c2cc(N(CCCN3CCCCCC3)Cc3ccc4c(c3)OCO4)on2)cc1
0.4,,1.2,4.67,,COc1ccc(-c2cc(N(CCCN3CCCCCC3)Cc3ccc4c(c3)OCO4)on2)cc1OC
0.36,,,,,c1ccc(-c2cc(N(CCCN3CCCCCC3)Cc3cccc4ccccc34)on2)cc1
0.35,,0.6,1.97,,N#Cc1cccc(-c2cc(N(CCCN3CCCCCC3)Cc3ccc4c(c3)OCO4)on2)c1
0.27,,1.16,0.91,,Clc1cccc(-c2cc(N(CCCN3CCCCCC3)Cc3ccc4c(c3)OCO4)on2)c1
0.14,,0.29,3.2,,Cc1ccc(-c2cc(N(CCCN3CCCCCC3)Cc3ccc4c(c3)OCO4)on2)cc1
0.14,,0.77,1.18,,Fc1cccc(-c2cc(N(CCCN3CCCCCC3)Cc3ccc4c(c3)OCO4)on2)c1
0.13,,0.26,2.24,,COc1cccc(-c2cc(N(CCCN3CCCCCC3)Cc3ccc4c(c3)OCO4)on2)c1
0.13,,0.52,1.2,,COc1cc(OC)cc(-c2cc(N(CCCN3CCCCCC3)Cc3ccc4c(c3)OCO4)on2)c1
0.13,,0.25,,60,COc1ccc(-c2cc(N(CCCN3CCCCCC3)Cc3ccc4c(c3)OCO4)on2)cc1
0.12,,0.89,,60,Cc1cccc(-c2cc(N(CCCN3CCCCCC3)Cc3ccc4c(c3)OCO4)on2)c1
0.09,> 10,0.15,0.51,,Fc1cc(F)cc(-c2cc(N(CCCN3CCCCCC3)Cc3ccc4c(c3)OCO4)on2)c1
0.09,,0.47,0.88,,Ic1ccc(-c2cc(N(CCCN3CCCCCC3)Cc3ccc4c(c3)OCO4)on2)cc1
0.07,,,2.14,,COc1ccc(-c2cc(N(CCCN3CCCCCC3)Cc3ccc4c(c3)OCO4)on2)cc1F
